Data as given in ChEMBL document CHEMBL5385939, “Novel ether derivatives of 11-azaartemisinins with high order antimalarial activity against multidrug-resistant Plasmodium yoelii in Swiss mice” (2024).
The source made the active and inactive calls. The rule behind the calls is not given here.

What was measured:
Plasmodium yoelii [1] = assay: Antimalarial activity against multidrug resistant Plasmodium yoelii infected in swiss mouse assessed as reduction in parasitaemia at 24 mg/kg, po administered for 4 days; assay type: functional; design: scale not given: the % may be the effect or the level left; conditions: time 4 day
Plasmodium yoelii [2] = assay: Antimalarial activity against multidrug resistant Plasmodium yoelii infected in swiss mouse assessed as reduction in parasitaemia at 12 mg/kg, IM administered for 4 days; assay type: functional; design: scale not given: the % may be the effect or the level left; conditions: time 4 day
Plasmodium yoelii [3] = assay: Antimalarial activity against multidrug resistant Plasmodium yoelii infected in swiss mouse assessed as reduction in parasitaemia at 6 mg/kg, IM administered for 4 days; assay type: functional; design: scale not given: the % may be the effect or the level left; conditions: time 4 day
Plasmodium yoelii [4] = assay: Antimalarial activity against multidrug resistant Plasmodium yoelii infected in swiss mouse assessed as reduction in parasitaemia at 3 mg/kg, IM administered for 4 days; assay type: functional; design: scale not given: the % may be the effect or the level left; conditions: time 4 day
Plasmodium yoelii [5] = assay: Antimalarial activity against multidrug resistant Plasmodium yoelii infected in swiss mouse assessed as increase in survival time at 48 mg/kg, po administered for 4 days and measured on day 28; assay type: functional, organism-based; conditions: time 28.0 day
Plasmodium yoelii [6] = assay: Antimalarial activity against multidrug resistant Plasmodium yoelii infected in swiss mouse assessed as increase in survival time at 6 mg/kg, IM administered for 4 days and measured on day 28; assay type: functional, organism-based; conditions: time 28.0 day
Plasmodium yoelii [7] = assay: Antimalarial activity against multidrug resistant Plasmodium yoelii infected in swiss mouse assessed as increase in survival time at 12 mg/kg, IM administered for 4 days and measured on day 28; assay type: functional, organism-based; conditions: time 28.0 day
Plasmodium yoelii [8] = assay: Antimalarial activity against multidrug resistant Plasmodium yoelii infected in swiss mouse assessed as increase in survival time at 3 mg/kg, IM administered for 4 days and measured on day 28; assay type: functional, organism-based; conditions: time 28.0 day
Plasmodium yoelii [9] = assay: Antimalarial activity against multidrug resistant Plasmodium yoelii infected in swiss mouse assessed as reduction in parasitaemia at 48 mg/kg, IM administered for 4 days; assay type: functional; design: scale not given: the % may be the effect or the level left; conditions: time 4 day
Plasmodium yoelii [10] = assay: Antimalarial activity against multidrug resistant Plasmodium yoelii infected in swiss mouse assessed as increase in survival time at 48 mg/kg, IM administered for 4 days and measured on day 28; assay type: functional, organism-based; conditions: time 28.0 day
Plasmodium yoelii [11] = assay: Antimalarial activity against multidrug resistant Plasmodium yoelii infected in swiss mouse assessed as increase in survival time at 24 mg/kg, po administered for 4 days and measured on day 28; assay type: functional, organism-based; conditions: time 28.0 day
Plasmodium yoelii [12] = assay: Antimalarial activity against multidrug resistant Plasmodium yoelii infected in swiss mouse assessed as reduction in parasitaemia at 12 mg/kg, po administered for 4 days; assay type: functional; design: scale not given: the % may be the effect or the level left; conditions: time 4 day
Plasmodium yoelii [13] = assay: Antimalarial activity against multidrug resistant Plasmodium yoelii infected in swiss mouse assessed as reduction in parasitaemia at 24 mg/kg, IM administered for 4 days; assay type: functional; design: scale not given: the % may be the effect or the level left; conditions: time 4 day
Plasmodium yoelii [14] = assay: Antimalarial activity against multidrug resistant Plasmodium yoelii infected in swiss mouse assessed as increase in survival time at 12 mg/kg, po administered for 4 days and measured on day 28; assay type: functional, organism-based; conditions: time 28.0 day
Plasmodium yoelii [15] = assay: Antimalarial activity against multidrug resistant Plasmodium yoelii infected in swiss mouse assessed as increase in survival time at 24 mg/kg, IM administered for 4 days and measured on day 28; assay type: functional, organism-based; conditions: time 28.0 day
Plasmodium yoelii [16] = assay: Antimalarial activity against multidrug resistant Plasmodium yoelii infected in swiss mouse assessed as reduction in parasitaemia at 48 mg/kg, po administered for 4 days; assay type: functional; design: scale not given: the % may be the effect or the level left; conditions: time 4 day

Compound: CCOC1O[C@@H]2O[C@@]3(C)CC[C@H]4[C@H](C)CC[C@@H]([C@H]1C)[C@@]24OO3 (stereo partly specified)
- Activity (Plasmodium yoelii [1]): 100%
- Activity (Plasmodium yoelii [2]): 100%
- Activity (Plasmodium yoelii [3]): 100%
- Activity (Plasmodium yoelii [4]): 100%
- Activity (Plasmodium yoelii [5]): Active
- Activity (Plasmodium yoelii [6]): Active
- Activity (Plasmodium yoelii [7]): Active
- Activity (Plasmodium yoelii [8]): inactive

Compound: C[C@@H]1CC[C@H]2[C@@H](C)C(=O)N(O)[C@@H]3O[C@@]4(C)CC[C@@H]1[C@@]23OO4
- Activity (Plasmodium yoelii [9]): 78%
- Activity (Plasmodium yoelii [10]): inactive

Compound: C[C@@H]1CC[C@H]2[C@@H](C)C(=O)N(OCCCc3ccccc3)[C@@H]3O[C@@]4(C)CC[C@@H]1[C@@]23OO4
- Activity (Plasmodium yoelii [1]): 94%
- Activity (Plasmodium yoelii [2]): 81%
- Activity (Plasmodium yoelii [11]): inactive
- Activity (Plasmodium yoelii [7]): inactive

Compound: C[C@@H]1CC[C@H]2[C@@H](C)C(=O)N(N)[C@@H]3O[C@@]4(C)CC[C@@H]1[C@@]23OO4
- Activity (Plasmodium yoelii [1]): 100%
- Activity (Plasmodium yoelii [12]): 99%
- Activity (Plasmodium yoelii [13]): 100%
- Activity (Plasmodium yoelii [14]): inactive
- Activity (Plasmodium yoelii [15]): inactive

Compound: C[C@@H]1CC[C@H]2[C@@H](C)C(=O)N(CCOCc3ccccc3)[C@@H]3O[C@]4(C)CC[C@@H]1[C@@]23OO4
- Activity (Plasmodium yoelii [1]): 100%
- Activity (Plasmodium yoelii [2]): 100%
- Activity (Plasmodium yoelii [3]): 100%
- Activity (Plasmodium yoelii [6]): inactive
- Activity (Plasmodium yoelii [7]): Active

Compound: C[C@@H]1CC[C@H]2[C@@H](C)C(=O)N(OCc3ccc([N+](=O)[O-])cc3)[C@@H]3O[C@@]4(C)CC[C@@H]1[C@@]23OO4
- Activity (Plasmodium yoelii [1]): 100%
- Activity (Plasmodium yoelii [2]): 100%

Compound: C[C@@H]1CC[C@H]2[C@@H](C)C(=O)N(CCOCCCc3ccccc3)[C@@H]3O[C@]4(C)CC[C@@H]1[C@@]23OO4
- Activity (Plasmodium yoelii [1]): 100%
- Activity (Plasmodium yoelii [2]): 91%
- Activity (Plasmodium yoelii [3]): 100%
- Activity (Plasmodium yoelii [7]): inactive

Compound: C[C@@H]1CC[C@H]2[C@@H](C)C(=O)N(CCOCc3ccc(-c4ccccc4)cc3)[C@@H]3O[C@@]4(C)CC[C@@H]1[C@@]23OO4
- Activity (Plasmodium yoelii [1]): 100%
- Activity (Plasmodium yoelii [2]): 100%

Compound: C[C@@H]1CC[C@H]2[C@@H](C)C(=O)N(NCc3ccc(Br)cc3)[C@@H]3O[C@@]4(C)CC[C@@H]1[C@@]23OO4
- Activity (Plasmodium yoelii [1]): 100%
- Activity (Plasmodium yoelii [2]): 100%

Compound: C[C@@H]1CC[C@H]2[C@@H](C)C(=O)N(CCOCc3ccccc3F)[C@@H]3O[C@@]4(C)CC[C@@H]1[C@@]23OO4
- Activity (Plasmodium yoelii [1]): 100%
- Activity (Plasmodium yoelii [2]): 100%

Compound: C[C@@H]1CC[C@H]2[C@@H](C)C(=O)N(CCO)[C@@H]3O[C@@]4(C)CC[C@@H]1[C@@]23OO4
- Activity (Plasmodium yoelii [1]): 10%
- Activity (Plasmodium yoelii [16]): 100%
- Activity (Plasmodium yoelii [9]): 100%
- Activity (Plasmodium yoelii [5]): inactive

Compound: C[C@@H]1CC[C@H]2[C@@H](C)C(=O)N(CCOCc3ccc([N+](=O)[O-])cc3)[C@@H]3O[C@@]4(C)CC[C@@H]1[C@@]23OO4
- Activity (Plasmodium yoelii [1]): 90%
- Activity (Plasmodium yoelii [2]): 100%
- Activity (Plasmodium yoelii [3]): 100%
- Activity (Plasmodium yoelii [11]): inactive
- Activity (Plasmodium yoelii [6]): inactive
- Activity (Plasmodium yoelii [7]): Active
